{"source": "patent US20150202186A1", "about": "“CYSTATHIONINE-(gamma)-LYASE (CSE) INHIBITORS FOR TREATING PAIN” (SOVA PHARMACEUTICALS, INC., priority 2014, published 2015)"}
{"biological_target": "recombinant CSE (cystathionine-γ-lyase) (UniProt P32929)", "assay": "CSE In Vitro Assay", "units": {"IC50": "µM"}}
{"smiles": "CCN(N)c1nnn[nH]1", "note": "[Compound 13]", "IC50": "< 25"}
{"smiles": "COCCN(N)c1nnn[nH]1", "note": "[Compound 15]", "IC50": "25 to 100"}
{"smiles": "CN(N)c1nnn(C)n1", "note": "[Compound 38]", "IC50": "> 100"}
